{"source": "patent US20100280268A1", "about": "“H[…] RESOLVED FL[…] TEST SYSTEM” (priority 2006, published 2010)", "note": "Ends that are not written are not given here.", "data": [{"molecular_target": "T1, HIV six-helix bundle of gp41 (IQN36 / C34) (Human immunodeficiency virus type 1 group M subtype B, UniProt P04578)", "T1 construct": "made in house; host or cells: chemical peptide synthesis, no expression host", "assay": "HIV-FRET IQN36/C34 homogeneous time resolved fluorescence test system (6-helix bundle formation)", "type": "binding, Human Immunodeficiency Virus (HIV-1)", "procedure": "All reagents were dissolved in 100 mM Hepes buffer pH 7.2. Test compounds were serially diluted and then added to 384-well plates. A final concentration of 10 nM S-APC and 100 nM IQN36-biotin were mixed in tubes, incubated for 30 min at room temperature and then added to well containing test compound. The compound/S-APC/IQN36-biotin mixture was incubated for another 2 hours at room temperature.", "units": {"IC50": "µM"}, "values": [{"molecule": "CCCCCOc1cc(Oc2ccc(NS(=O)(=O)c3ccc(C)cc3)c(C(=O)O)c2)ccc1NS(=O)(=O)c1ccc(C)cc1", "note": "[Compound 5, 5-[3-pentyloxy-4-(toluene-4-sulfonylamino)-phenoxy]-2-(toluene-4-sulfonylamino)-benzoic acid]", "IC50": 3.48}, {"molecule": "Cc1ccc(S(=O)(=O)Nc2ccc(Oc3ccc(NS(=O)(=O)c4ccc(C)cc4)c(C(=O)O)c3)cc2OCc2ccccc2)cc1", "note": "[Compound 2, 5-[3-Benzyloxy-4-(toluene-4-sulfonylamino)-phenoxy]-2-(toluene-4-sulfonylamino)-benzoic acid]", "IC50": 2.72}, {"molecule": "CCCCCCN(c1ccc(Oc2ccc(NS(=O)(=O)c3ccc(C)cc3)c(C(=O)O)c2)cc1)S(=O)(=O)c1ccc(C)cc1", "note": "[Compound 4, 5-{4-[Hexyl-(toluene-4-sulfonyl)-amino]-phenoxy}-2-(4-methylphenylsulfonamino)-benzoic acid]", "IC50": 4.45}, {"molecule": "Cc1ccc(S(=O)(=O)Nc2ccc(Oc3ccc(NS(=O)(=O)c4ccc(C)cc4)c(C(=O)O)c3)cc2Cc2ccccc2)cc1", "note": "[Compound 12, 5-[3-Benzyl-4-(toluene-4-sulfonylamino)-phenoxy]-2-(toluene-4-sulfonylamino)-benzoic acid]", "IC50": 2.09}, {"molecule": "Cc1ccc(S(=O)(=O)Nc2ccc(Oc3ccc(NS(=O)(=O)c4ccc(C)cc4)c(N(C)Cc4ccccc4)c3)cc2C(=O)O)cc1", "note": "[Compound 10, 5-[3-(Benzyl-methyl-amino)-4-(toluene-4-sulfonylamino)-phenoxy]-2-(toluene-4-sulfonylamino)-benzoic acid]", "IC50": 2.64}, {"molecule": "Cc1ccc(S(=O)(=O)Nc2ccc(Oc3ccc(NS(=O)(=O)c4ccc(C)cc4)c(C(=O)O)c3)cc2NCc2ccccc2)cc1", "note": "[Compound 8, 5-[3-Benzylamino-4-(toluene-4-sulfonylamino)-phenoxy]-2-(toluene-4-sulfonylamino)-benzoic acid]", "IC50": 2.27}, {"molecule": "Cc1ccc(S(=O)(=O)Nc2ccc(Oc3ccc(NS(=O)(=O)c4ccc(C)cc4)c(C(=O)O)c3)cc2OCC(C)C)cc1", "note": "[Compound 7, 5-[3-Isobutoxy-4-(toluene-4-sulfonylamino)-phenoxy]-2-(toluene-4-sulfonylamino)-benzoic acid]", "IC50": 3.27}, {"molecule": "CCNc1cc(Oc2ccc(NS(=O)(=O)c3ccc(C)cc3)c(C(=O)O)c2)ccc1NS(=O)(=O)c1ccc(C)cc1", "note": "[Compound 11, 5-[3-Ethylamino-4-(toluene-4-sulfonylamino)-phenoxy]-2-(toluene-4-sulfonylamino)-benzoic acid]", "IC50": 2.47}, {"molecule": "CNc1cc(Oc2ccc(NS(=O)(=O)c3ccc(C)cc3)c(C(=O)O)c2)ccc1NS(=O)(=O)c1ccc(C)cc1", "note": "[Compound 13, 5-[3-Methylamino-4-(toluene-4-sulfonylamino)-phenoxy]-2-(toluene-4-sulfonylamino)-benzoic acid]", "IC50": 2.69}, {"molecule": "COC(=O)c1cc(Cc2cc(Cc3ccc(NS(=O)(=O)c4ccc(C)cc4)c(C(=O)O)c3)cc(C(=O)O)c2NS(=O)(=O)c2ccc(C)cc2)ccc1NS(=O)(=O)c1ccc(C)cc1", "note": "[Compound 1]", "IC50": 3.27}, {"molecule": "Cc1ccc(S(=O)(=O)Nc2ccc(Oc3ccc4c(c3)CCCN4S(=O)(=O)c3ccc(C)cc3)cc2C(=O)O)cc1", "note": "[Compound 3, 2-(4-methylphenylsulfonamino)-5-[1-(toluene-4-sulfonyl)-1,2,3,4-tetrahydro-quinolin-6-yloxy]-benzoic acid]", "IC50": 2.88}, {"molecule": "NFYDPLVFPSDEFDASISQVNEKINQSLAFIRKSDELLHNVNAGK [Compound C45, reference compound]", "IC50": "> 10"}, {"molecule": "Cc1ccc(S(=O)(=O)Nc2ccc(Oc3ccc(NS(=O)(=O)c4ccc(C)cc4)c(-c4ccccc4)c3)cc2C(=O)O)cc1", "note": "[Compound 6, 2-(Toluene-4-sulfonylamino)-5-[6-(toluene-4-sulfonylamino)-biphenyl-3-yloxy]-benzoic acid]", "IC50": 3.16}, {"molecule": "CCCCNc1cc(Oc2ccc(NS(=O)(=O)c3ccc(C)cc3)c(C(=O)O)c2)ccc1NS(=O)(=O)c1ccc(C)cc1", "note": "[Compound 9, 5-[3-Butylamino-4-(toluene-4-sulfonylamino)-phenoxy]-2-(toluene-4-sulfonylamino)-benzoic acid]", "IC50": 1.81}]}]}
